Patent publication US20020007663A1, “Method of introducing an in situant into a vapor compression system, especially useful for leak detection, as well as an apparatus for leak detection and a composition useful for leak detection” (Mainstream Engineering Corporation, priority 1997, published 2002)
Read-outs that look alike come from different tables or passages of the source.

Assay: solubility of fluorescent in situants in POE oils, alcohols, AB oil and mineral oil
Details: for solubility in POE oil: two different POE oils
Procedure: We have measured the solubility of several fluorescent and daylight-visible in situants in various POE oils and prepared solutions comprised solely of the POE carrier fluid (i.e., no alcohol in the carrier fluid) and these in situants. An example composition is 30 wt. % N-phenyl-1-naphthylamine and 70 wt. % POE oil. […] For example, a composition was prepared with 30 wt. % N-phenyl-1-naphthylamine, 1 wt. % 7-diethylamino-4-methylcoumarin (coumarin 1) and 69 wt. % POE oil. […] The preferred final composition of the fluorescing or daylight visible in situant in the system oil will be below the solubility limits.

[1] = POE oil or alcohols, qualitative

Molecule | soluble in POE oil or alcohols | also measured
NC(=O)c1nc2ccc(O)cc2s1 [2-carbamoyl-6-hydroxybenzothiazole] | soluble | 
Oc1ccc2nc(-c3nc4ccccc4s3)sc2c1 [2′-(2-benzothiazolyl)-6′-hydroxybenzothiazole] | soluble | 
c1ccc(N=Nc2ccc(Nc3ccccc3)cc2)cc1 [4-(phenylazo)-diphenylamine] | soluble | 
c1ccc(Nc2cccc3ccccc23)cc1 [N-phenyl-1-naphthylamine] |  | solubility in AB oil (AB oil): about 10 weight percent; solubility in alcohols: 20-30%; solubility in mineral oil (mineral oil): ~3 weight percent; solubility in POE oil: 20-30 % by wt.
c1ccc(Nc2ccc3ccccc3c2)cc1 [N-phenyl-2-naphthylamine] |  | soluble in POE oil or alcohols [1]: soluble; solubility in alcohols: 1-6%; solubility in POE oil: about 5 % by wt.
O=C1c2cccc(O)c2C(=O)c2cccc(O)c21 [anthrarufin] | soluble | 
c1ccc(Nc2ccccc2)cc1 [diphenylamine] | soluble | 
c1ccc2c(c1)Nc1ccccc1S2 [phenothiazine] |  | soluble in POE oil or alcohols [1]: soluble
O=C1c2ccccc2C(=O)c2c(O)c(O)cc(O)c21 [purpurin] | soluble | 
O=C1c2ccc(O)c(O)c2C(=O)c2c(O)ccc(O)c21 [quinalizarin] | soluble | 
Cc1ccc2nc(-c3ccc(N=NNc4ccc(-c5nc6ccc(C)c(S(=O)(=O)[O-])c6s5)cc4)cc3)sc2c1S(=O)(=O)[O-].[Na+].[Na+] [thiazole yellow G] | soluble | 
primuline | soluble | 
